Results from US11312712B2, “Azabenzimidazoles and their use as AMPA receptor modulators” (Janssen Pharmaceutica NV, priority 2015, dated 2022).

The compounds below were run against GluA1o-γ8 (GRIA1o-CACNG8 fusion construct) (Homo sapiens (Human), UniProt P42261+Q8WXS5) (assay: Calcium flux assay (FLIPR), inhibition of TARP γ8 dependent AMPA receptor activity). Conditions: GluA1o-γ8 (GRIA1o-CACNG8 fusion) in HEK293 cells, calcium flux after 15 μM glutamate.
Format: cell-based
In short: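 HEK293 cells stably expressing a 1:1 GRIA1o–CACNG8 fusion were loaded with Calcium-5/6 dye plus compound in pH 7.4 HEPES-buffered saline. FLIPR calcium flux after 15 μM glutamate was normalized to untreated and 10 μM CP465022 controls, and a four-parameter logistic fit gave pIC50.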

Sequence of GluA1o-γ8 (GRIA1o-CACNG8 fusion construct) (P42261 other isoform, or with tags, fused parts or gaps): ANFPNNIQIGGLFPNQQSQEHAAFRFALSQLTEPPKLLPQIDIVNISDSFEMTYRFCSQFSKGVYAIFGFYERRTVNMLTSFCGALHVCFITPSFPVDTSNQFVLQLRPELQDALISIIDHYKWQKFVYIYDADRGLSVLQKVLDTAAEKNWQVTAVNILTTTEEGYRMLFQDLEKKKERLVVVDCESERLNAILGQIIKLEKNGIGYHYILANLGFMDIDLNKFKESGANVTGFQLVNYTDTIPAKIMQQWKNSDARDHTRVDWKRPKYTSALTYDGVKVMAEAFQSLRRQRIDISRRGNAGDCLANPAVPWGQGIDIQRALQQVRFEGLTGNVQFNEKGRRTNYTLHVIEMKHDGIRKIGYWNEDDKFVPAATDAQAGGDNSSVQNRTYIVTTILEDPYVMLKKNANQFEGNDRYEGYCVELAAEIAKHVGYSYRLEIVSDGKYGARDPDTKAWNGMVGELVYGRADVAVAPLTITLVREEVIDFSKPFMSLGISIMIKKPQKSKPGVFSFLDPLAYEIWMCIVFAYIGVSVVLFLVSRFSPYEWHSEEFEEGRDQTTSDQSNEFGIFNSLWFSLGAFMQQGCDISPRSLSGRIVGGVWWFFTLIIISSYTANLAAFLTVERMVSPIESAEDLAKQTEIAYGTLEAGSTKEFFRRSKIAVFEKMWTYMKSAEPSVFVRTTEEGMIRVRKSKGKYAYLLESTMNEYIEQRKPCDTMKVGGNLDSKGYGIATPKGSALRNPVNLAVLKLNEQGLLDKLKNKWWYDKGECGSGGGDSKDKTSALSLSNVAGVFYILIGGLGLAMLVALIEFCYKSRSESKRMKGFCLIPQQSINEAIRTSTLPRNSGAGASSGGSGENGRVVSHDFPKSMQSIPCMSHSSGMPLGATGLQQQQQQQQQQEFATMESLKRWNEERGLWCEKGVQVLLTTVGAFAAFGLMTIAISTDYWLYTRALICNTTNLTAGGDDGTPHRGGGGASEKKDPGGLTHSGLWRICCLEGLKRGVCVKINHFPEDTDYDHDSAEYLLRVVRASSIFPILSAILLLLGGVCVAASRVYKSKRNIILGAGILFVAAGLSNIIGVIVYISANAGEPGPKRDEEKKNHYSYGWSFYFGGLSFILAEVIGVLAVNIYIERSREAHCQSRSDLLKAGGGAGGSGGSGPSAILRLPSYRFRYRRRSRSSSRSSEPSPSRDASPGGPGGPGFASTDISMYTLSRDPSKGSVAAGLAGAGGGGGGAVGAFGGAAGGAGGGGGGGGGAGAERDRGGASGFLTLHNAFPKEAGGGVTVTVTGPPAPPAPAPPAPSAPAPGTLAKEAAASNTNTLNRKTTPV

Row | IC50 | Structure (SMILES)
1 | 3160 nM | O=C1Cc2cc(-n3c(-c4ccc(C(F)(F)F)cc4)nc4cccnc43)ccc2N1 [Example 178, 5-[2-[4-(Trifluoromethyl)phenyl]imidazo[4,5-b]pyridin-3-yl]indolin-2-one]
2 | 3160 nM | CC(C)(C)OC(=O)N1CC(c2nc3ccc(C(F)(F)F)nc3n2-c2ccc3c(c2)CC(=O)N3)C1 [Example 179, tert-Butyl 3-[3-(2-oxoindolin-5-yl)-5-(trifluoromethyl)imidazo[4,5-b]pyridin-2-yl]azetidine-1-carboxylate]
3 | 2000 nM | O=C1Cc2cc(-n3c(C4CNC4)nc4ccc(C(F)(F)F)nc43)ccc2N1 [Example 180, 5-[2-(Azetidin-3-yl)-5-(trifluoromethyl)imidazo[4,5-b]pyridin-3-yl]indolin-2-one]
4 | 2510 nM | Cc1ccc2nc(C)n(-c3ccc4c(c3)CC(=O)N4)c2n1 [Example 181, 5-(2,5-Dimethylimidazo[4,5-b]pyridin-3-yl)indolin-2-one]
5 | 2000 nM | COC(=O)CCc1nc2ccc(C(F)(F)F)nc2n1-c1ccc2c(c1)CC(=O)N2 [Example 183, Methyl 3-[3-(2-oxoindolin-5-yl)-5-(trifluoromethyl)imidazo[4,5-b]pyridin-2-yl]propanoate]
6 | 0.01 nM | CC(C)c1nc2ccc(C(F)(F)F)nc2n1-c1cc(Br)c2[nH]ncc2c1 [Example 184, 3-(7-Bromo-1H-indazol-5-yl)-2-isopropyl-5-(trifluoromethyl)imidazo[4,5-b]pyridine]
7 | 100 nM | Cn1c(=O)sc2cc(-n3c(C4CCC4)nc4ccc(C(F)(F)F)nc43)ccc21 [Example 185, 6-(2-Cyclobutyl-5-(trifluoromethyl)-3H-imidazo[4,5-b]pyridin-3-yl)-3-methylbenzo[d]thiazol-2(3H)-one]
8 | 0.01 nM | FC(F)(F)c1ccc2nc(C(F)(F)F)n(-c3cc(Br)c4[nH]ncc4c3)c2n1 [Example 187, 3-(7-Bromo-1H-indazol-5-yl)-2,5-bis(trifluoromethyl)imidazo[4,5-b]pyridine]
9 | 316 nM | FC(F)(F)c1ccc2nc(C(F)(F)F)n(-c3cc(-c4ccccc4)c4[nH]ncc4c3)c2n1 [Example 188, 3-(7-Phenyl-1H-indazol-5-yl)-2,5-bis(trifluoromethyl)-3H-imidazo[4,5-b]pyridine]
10 | 0.0398 nM | C=Cc1cc(-n2c(C(F)(F)F)nc3ccc(C(F)(F)F)nc32)cc2cn[nH]c12 [Example 189, 2,5-Bis(trifluoromethyl)-3-(7-vinyl-1H-indazol-5-yl)-3H-imidazo[4,5-b]pyridine]
11 | 316 nM | O=c1[nH]c2ccc(-n3cnc4ccc(C(F)(F)F)nc43)cc2s1 [Example 190, 6-(5-(Trifluoromethyl)-3H-imidazo[4,5-b]pyridin-3-yl)benzo[d]thiazol-2(3H)-one]
12 | 3.98 nM | CC(C)c1nc2ccc(C(F)(F)F)nc2n1-c1ccc2[nH]nc(F)c2c1 [Example 191, 3-(3-Fluoro-1H-indazol-5-yl)-2-isopropyl-5-(trifluoromethyl)imidazo[4,5-b]pyridine]
13 | 2.51 nM | FC(F)(F)c1nc2ccc(Cl)nc2n1-c1ccc2[nH]ncc2c1 [Example 192, 5-Chloro-3-(1H-indazol-5-yl)-2-(trifluoromethyl)imidazo[4,5-b]pyridine]
14 | 1.58 nM | CCc1ccc2nc(C(F)(F)F)n(-c3ccc4[nH]ncc4c3)c2n1 [Example 193, 5-Ethyl-3-(1H-indazol-5-yl)-2-(trifluoromethyl)imidazo[4,5-b]pyridine]
15 | 20 nM | Cc1cc(-n2cnc3ccc(C(F)(F)F)nc32)cc2cn[nH]c12 [Example 194, 3-(7-Methyl-1H-indazol-5-yl)-5-(trifluoromethyl)imidazo[4,5-b]pyridine]
16 | 0.0126 nM | Cc1cc(-n2c(-c3ccc(F)cc3)nc3ccc(C(F)(F)F)nc32)cc2cn[nH]c12 [Example 195, 2-(4-Fluorophenyl)-3-(7-methyl-1H-indazol-5-yl)-5-(trifluoromethyl)imidazo[4,5-b]pyridine]
17 | 25.1 nM | CCOc1nc2ccc(C(F)(F)F)nc2n1-c1ccc2[nH]nc(F)c2c1 [Example 196, 2-Ethoxy-3-(3-fluoro-1H-indazol-5-yl)-5-(trifluoromethyl)imidazo[4,5-b]pyridine]
18 | 6.31 nM | Fc1n[nH]c2ccc(-n3c(C4CC4)nc4ccc(C(F)(F)F)nc43)cc12 [Example 197, 2-Cyclopropyl-3-(3-fluoro-1H-indazol-5-yl)-5-(trifluoromethyl)imidazo[4,5-b]pyridine]
19 | 0.0316 nM | Cc1cc(-n2c(C(C)C)nc3ccc(C(F)(F)F)nc32)cc2cn[nH]c12 [Example 198, 2-Isopropyl-3-(7-methyl-1H-indazol-5-yl)-5-(trifluoromethyl)imidazo[4,5-b]pyridine]
20 | 2 nM | FC(F)(F)c1nc2cccnc2n1-c1cc(Cl)c2[nH]ncc2c1 [Example 199, 3-(7-Chloro-1H-indazol-5-yl)-2-(trifluoromethyl)imidazo[4,5-b]pyridine]

Row | IC50 | Structure (SMILES)
21 | 6.31 nM | CC(C)c1nc2cccnc2n1-c1cc(Cl)c2[nH]ncc2c1 [Example 200, 3-(7-Chloro-1H-indazol-5-yl)-2-isopropyl-imidazo[4,5-b]pyridine]
22 | 100 nM | Cc1ccnc2c1nc(C(F)(F)F)n2-c1ccc2[nH]ncc2c1 [Example 201, 3-(1H-indazol-5-yl)-7-methyl-2-(trifluoromethyl)imidazo[4,5-b]pyridine]
23 | 0.631 nM | Cc1ccnc2c1nc(C(F)(F)F)n2-c1cc(Cl)c2[nH]ncc2c1 [Example 202, 3-(7-Chloro-1H-indazol-5-yl)-7-methyl-2-(trifluoromethyl)imidazo[4,5-b]pyridine]
24 | 5.01 nM | Cc1ccnc2c1nc(C(F)(F)F)n2-c1cc(C)c2[nH]ncc2c1 [Example 203, 7-Methyl-3-(7-methyl-1H-indazol-5-yl)-2-(trifluoromethyl)imidazo[4,5-b]pyridine]
25 | 12.6 nM | FC(F)(F)c1ccc2nc(C(F)(F)F)n(-c3cnc4[nH]ncc4c3)c2n1 [Example 204, 3-(1H-pyrazolo[3,4-b]pyridin-5-yl)-2,5-bis(trifluoromethyl)imidazo[4,5-b]pyridine]
26 | 398 nM | [O-][n+]1cc(-n2c(C(F)(F)F)nc3ccc(C(F)(F)F)nc32)cc2cn[nH]c21 [Example 205, 3-(7-Oxido-1H-pyrazolo[3,4-b]pyridin-7-ium-5-yl)-2,5-bis(trifluoromethyl)imidazo[4,5-b]pyridine]
27 | 0.316 nM | O=c1[nH]c2ccc(-n3c(C(F)(F)F)nc4ccc(C(F)F)nc43)cc2s1 [Example 206, 6-[5-(difluoromethyl)-2-(trifluoromethyl)imidazo[4,5-b]pyridin-3-yl]-3H-1,3-benzothiazol-2-one]
28 | 0.0631 nM | FC(F)c1ccc2nc(C(F)F)n(-c3cc(Cl)c4[nH]ncc4c3)c2n1 [Example 207, 3-(7-Chloro-1H-indazol-5-yl)-2,5-bis(difluoromethyl)imidazo[4,5-b]pyridine]
29 | 0.158 nM | FC(F)(F)c1nc2ccc(C3CCC3)nc2n1-c1ccc2[nH]ncc2c1 [Example 208, 5-Cyclobutyl-3-(1H-indazol-5-yl)-2-(trifluoromethyl)imidazo[4,5-b]pyridine]
30 | 0.631 nM | CC(C)c1nc2ccc(C(F)F)nc2n1-c1ccc2[nH]ncc2c1 [Example 210, 5-(Difluoromethyl)-3-(1H-indazol-5-yl)-2-isopropyl-imidazo[4,5-b]pyridine]
31 | 5.01 nM | CC(C)c1nc2ccc(C(C)(F)F)nc2n1-c1ccc2[nH]ncc2c1 [Example 211, 5-(1,1-Difluoroethyl)-3-(1H-indazol-5-yl)-2-isopropyl-imidazo[4,5-b]pyridine]
32 | 0.0794 nM | Cc1cc(-n2c(C(F)F)nc3ccc(C(F)F)nc32)cc2cn[nH]c12 [Example 212, 2,5-Bis(difluoromethyl)-3-(7-methyl-1H-indazol-5-yl)imidazo[4,5-b]pyridine]
33 | 0.501 nM | Cc1ccc2nc(-c3ccnc(F)c3)n(-c3cc(C)c4[nH]ncc4c3)c2n1 [Example 213, 2-(2-Fluoro-4-pyridyl)-5-methyl-3-(7-methyl-1H-indazol-5-yl)imidazo[4,5-b]pyridine]
34 | 0.158 nM | Cc1cc(-n2c(C(C)C)nc3c(N(C)CCF)cc(C(F)(F)F)nc32)cc2cn[nH]c12 [Example 214, N-(2-Fluoroethyl)-2-isopropyl-N-methyl-3-(7-methyl-1H-indazol-5-yl)-5-(trifluoromethyl)imidazo[4,5-b]pyridin-7-amine]
35 | 1580 nM | O=C1Nc2ccc(-n3c(-c4ccnc(F)c4)nc4ccc(C(F)(F)F)nc43)cc2C1=O [Example 215, 5-[2-(2-Fluoro-4-pyridyl)-5-(trifluoromethyl)imidazo[4,5-b]pyridin-3-yl]indoline-2,3-dione]
36 | 0.0501 nM | Cc1cc(-n2c(-c3ccnc(F)c3)nc3ccc(C(F)(F)F)nc32)cc2cn[nH]c12 [Example 217, 2-(2-Fluoro-4-pyridyl)-3-(7-methyl-1H-indazol-5-yl)-5-(trifluoromethyl)imidazo[4,5-b]pyridine]
37 | 0.0501 nM | FCCOc1cc(C(F)(F)F)nc2c1nc(C(F)(F)F)n2-c1cc(Cl)c2[nH]ncc2c1 [Example 218, 3-(7-Chloro-1H-indazol-5-yl)-7-(2-fluoroethoxy)-2,5-bis(trifluoromethyl)imidazo[4,5-b]pyridine]
38 | 15.8 nM | OC/C=C/c1cc(-n2c(C(F)(F)F)nc3ccc(C(F)(F)F)nc32)cc2cn[nH]c12 [Example 219, (E)-3-(5-(2,5-Bis(trifluoromethyl)-3H-imidazo[4,5-b]pyridin-3-yl)-1H-indazol-7-yl)prop-2-en-1-ol]
39 | 158 nM | OCCCc1cc(-n2c(C(F)(F)F)nc3ccc(C(F)(F)F)nc32)cc2cn[nH]c12 [Example 220, 3-(5-(2,5-Bis(trifluoromethyl)-3H-imidazo[4,5-b]pyridin-3-yl)-1H-indazol-7-yl)propan-1-ol]
40 | 0.126 nM | CCCc1cc(-n2c(C(F)(F)F)nc3ccc(C(F)(F)F)nc32)cc2cn[nH]c12 [Example 221, 3-(7-Propyl-1H-indazol-5-yl)-2,5-bis(trifluoromethyl)-3H-imidazo[4,5-b]pyridine]
